# Assay results from patent publication EP0820772A1, “IMMUNOMODULATING MEDICINAL AGENT” (Travkin, Oleg Viktorovich, priority 1995, dated 1996).
# What was measured:
# Lympho-sarcoma = assay: Antitumorous effectiveness, lympho-sarcoma tumour mass; details: intraperitoneally; proposed drug 30mg./kg. and prototype 300 mg./kg. on days 1, 2, 3 after transplantation; Adriamycin 600 μg./kg. on days 1 and 3; control 1124
# Erlich’s carcinoma = assay: Antitumorous effectiveness, Erlich's carcinoma tumour mass; details: intraperitoneally; proposed drug 300 mg./kg. and prototype 300 mg./kg. on days 1 and 3 after transplantation; Adriamycin 600 μg on day 1; control 540
# Semlika forest virus = Semlika forest virus infection, mortality; format: in vivo; details: 30 LD 50; 12 days after infection; intraperitoneally; Remantadin 20 mg./kg 4 h and 24 h after infection; proposed drug 10 mg./kg 4 h before and 24 h after infection; control 80%
# [1] = system: Herpes simplex - 1 (MS strain); assay: Herpetic encephalitis, mortality; format: in vivo; details: 100 LD 50; 7 days after infection; intraperitoneally; AraA 20 mg./kg. every day; prototype 400 mg./kg. and proposed drug 25 mg./kg. 4 h before and 24 h after infection; control 100%
# [2] = system: Venezuelan equine encephalitis virus (SPF strain); format: in vivo; details: intraperitoneally, Poly (G) 0.1 g./kg. and prototype 200 mg./kg. at infection and 24 h after, proposed drug 20 mg./kg 4 h before and 24 h after infection
# leukosis L 1210 = assay: Treatment of developing leukosis L 1210; details: orally on days 1, 2, 3 after transplantation; proposed drug 30 mg./kg., prototype 400 mg./kg.; control 96
# [3] = system: Herpes simplex-2 (Ela 5699 strain); assay: Rabbit keratitis, severity of clinical symptoms; details: daily instillation: megosin 3% ointment, prototype 5% ointment, proposed drug 2.1% suspension; for Index of severity of clinical symptoms on day 5 following infection: control 14; for Index of severity of clinical symptoms on day 7 following infection: control 17; for Index of severity of clinical symptoms on day 9 following infection: control 13; for Index of severity of clinical symptoms on day 14 following infection: control 2
# [4] = in vivo
compound,measurement,setting,value
COc1cccc2c1C(=O)c1c(O)c3c(c(O)c1C2=O)C[C@@](O)(C(=O)CO)C[C@@H]3O[C@H]1C[C@H](N)[C@H](O)[C@H](C)O1 [Adriamycin],Indices of efficacy (Mean tumour mass (mg.)),Lympho-sarcoma,622 mg
same,Indices of efficacy (Mean tumour mass (mg.)),Erlich’s carcinoma,100 mg
CC(N)C12CC3CC(CC(C3)C1)C2 (stereo not drawn) [Remantadin],"Indices of efficacy, % mortality",Semlika forest virus,"20%, 12 days after infection"
ether of 10 - methylencarboxylat-9-acridone [The proposed drug],"Indices of efficacy, % mortality",Semlika forest virus,0%
same,"Indices of efficacy, % mortality",[1],5%
same,"Degree of suppression of viral reproduction in the brain 48 hours after infection, expressed as a percentage relative to the control",[2],98%
same,Percentage of blastular cells in peripheral blood,leukosis L 1210,18%
same,Index of severity of clinical symptoms on day 5 following infection,[3],5
same,Index of severity of clinical symptoms on day 7 following infection,[3],3
same,Index of severity of clinical symptoms on day 9 following infection,[3],1
same,Index of severity of clinical symptoms on day 14 following infection,[3],0
same,Indices of efficacy (Mean tumour mass (mg.)),Lympho-sarcoma,534 mg
same,Indices of efficacy (Mean tumour mass (mg.)),Erlich’s carcinoma,74 mg
"Nc1ncnc2c1ncn2[C@@H]1O[C@H](CO)[C@@H](O)[C@@H]1O [AraA, adenin - arabinosid]","Indices of efficacy, % mortality",[1],"42%, 7 days after infection"
"CN(C)CCOc1ccc2cc3cc([N+](=O)[O-])c(OCCN(C)C)c(Cl)c3nc2c1Cl [The prototype, 3.6 - bis(2-dimethylaminetoxy)-4.5-dichlorine-2-nitroacridine]","Indices of efficacy, % mortality",[1],22%
same,"Degree of suppression of viral reproduction in the brain 48 hours after infection, expressed as a percentage relative to the control",[2],74%
same,toxicity (therapeutic index),[4],10-15
same,Percentage of blastular cells in peripheral blood,leukosis L 1210,40%
same,Index of severity of clinical symptoms on day 5 following infection,[3],10
same,Index of severity of clinical symptoms on day 7 following infection,[3],14
same,Index of severity of clinical symptoms on day 9 following infection,[3],8
same,Index of severity of clinical symptoms on day 14 following infection,[3],1
same,Indices of efficacy (Mean tumour mass (mg.)),Lympho-sarcoma,820 mg
same,Indices of efficacy (Mean tumour mass (mg.)),Erlich’s carcinoma,200 mg
